Data set [1] has as its system MRSA-1 (methicillin-resistant Staphylococcus aureus clinical isolate). Briefly: MIC assay (broth microdilution, CLSI). Format: cell-based. The settings on record: Staphylococcus aureus, MRSA, read-out: MIC, MRSA-1. A general note: Broth dilution looks for growth in wells or tubes with falling amounts of substance.
Data set [2] deals with Staphylococcus epidermidis (ATCC 12228). The data set can be described thus: MIC assay (broth microdilution, CLSI). The class given is cell-based. Particulars: Staphylococcus epidermidis, ATCC12228.
The subject of data set [3] is Staphylococcus epidermidis (ATCC 35984), MRSE. The data set can be described thus: MIC assay (broth microdilution, CLSI). The class given is cell-based. Particulars: for MIC: Staphylococcus epidermidis.
Data set [4] relates to Enterococcus faecium (ATCC 700221), VRE. Briefly: MIC assay (broth microdilution, CLSI). The class given is cell-based.
The test system of data set [5] is M. tuberculosis H37Ra (ATCC 25177). Briefly: Mycobacterium tuberculosis MIC assay. The class given is cell-based. The settings on record: Mycobacterium tuberculosis. A digest of the protocol: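 Culture diluted to OD600 0.01 and exposed to compounds in 0.5% final DMSO, each compound tested in three rows. Growth read as OD600 absorbance. Data from three independent experiments.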

A further data set can be described thus: in vitro. The class given is cell-based. The settings on record: human.
A further data set deals with HeLa cells. Briefly: in vitro. Format: cell-based. The settings on record: human, 24 h.
The test system of a further data set is human red blood cells. Briefly: Hemolysis assay with red blood cells. Particulars: human, 1 h, 200 μM, pH 7.2. A digest of the protocol: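 Hemolysis expressed as percent of the Triton X signal with DMSO as zero, using OD405 of supernatant. Compounds from DMSO stocks were incubated with triple-washed human erythrocytes for 1 hour at 37° C. before centrifugation; three independent experiments.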

Data set [6] concerns VRE (E. faecium ATCC 700221) planktonic cells and biofilms. The data set can be described thus: Calgary Biofilm Device (CBD) assay, MBC/MBEC. The class given is cell-based, Enterococcus faecium. Particulars: c lowest concentration tested; for MBC: Enterococcus.
A further data set relates to MRSA-2. The data set can be described thus: MIC assay with Tiron or metal(II) cation co-treatment. The settings on record: Staphylococcus aureus. The class given is cell-based, Staphylococcus aureus.
A further data set has as its system S. epidermidis 12228. Described as above. The class given is cell-based, Staphylococcus epidermidis. Particulars: Staphylococcus epidermidis.
The next data set has as its system E. faecium 700221 (VRE). The description is as above. Format: cell-based, Enterococcus faecium.
Data set [7] in a line: Mouse toxicity evaluation. The settings on record: once daily oral gavage in corn oil, 7 days; 202 22.1 mg/kg, 209 4.2 mg/kg. Format: in vivo, C57BL/6 mice. As for the experimental part:
Groups of five C57BL/6 mice (Charles River Laboratories International, Inc.; mice were eight weeks old) were treated once daily with HPs 202 (22.1 mg/kg) and 209 (4.2 mg/kg) for 7 days via oral gavage (0.25 mL of formulated corn oil for 25 gram mouse on average).

A further data set deals with MRSA BAA-1707. Briefly: MIC assay (broth microdilution, CLSI). Particulars: Staphylococcus aureus, read-out: MIC, MRSA BAA-1707.
Another data set relates to MRSA BAA-44. Briefly: MIC assay (broth microdilution, CLSI). Particulars: Staphylococcus aureus, read-out: MIC, MRSA BAA-44.
For data set [8], the system named is MRSA BAA-1707 planktonic cells and biofilms. Briefly: Calgary Biofilm Device (CBD) assay, MBC/MBEC. The settings on record: Staphylococcus aureus, read-out: MRSA BAA-1707 MBC.
The subject of data set [9] is methicillin-sensitive S. aureus strains. The data set can be described thus: MIC assay. The class given is cell-based. Particulars: Staphylococcus aureus; read-out: MIC against methicillin-sensitive S. aureus strains.
The subject of data set [10] is S. aureus clinical isolate SA 129. Briefly: MIC assay (broth microdilution, CLSI). The settings on record: Staphylococcus aureus, read-out: MIC, SA 129.
Data set [11] deals with S. aureus clinical isolate SA 138. Briefly: MIC assay (broth microdilution, CLSI). The settings on record: Staphylococcus aureus, read-out: MIC, SA 138.
In data set [12] the test system is S. aureus clinical isolate SA 156. The data set can be described thus: MIC assay (broth microdilution, CLSI). The settings on record: Staphylococcus aureus, read-out: MIC, SA 156.

≈ marks a conversion by molar mass, not a printed value. Where two headings read alike, the source gives them in different places. Marks after values point to notes of the source that are not given here.

For orientation: MIC means the lowest concentration that inhibits growth of the organism. As a reminder, the IC50 is the concentration that gives 50% inhibition. Lower therefore signals inhibition by little substance. For the molecule `Oc1c(Br)cc(Br)c2nc3cc(Cl)c(Cl)cc3nc12` [Compound 16], the MIC in data set [1] (Table 2A) is 12.5 µM (≈ 5.29 µg/mL); in data set [1] (Table 2B, b lowest concentration tested), 12.5 µM (≈ 5.29 µg/mL); in [2] (Table 2A, read-out: MIC, Staphylococcus epidermidis (ATCC 12228)) it was 0.05 to 0.1 µM (≈ 0.0211 to 0.0423 µg/mL); in data set [2] (Table 7, b lowest concentration tested, read-out: MIC, S. epidermidis 12228) it was 0.08 µM (≈ 0.0338 µg/mL); in data set [3] (Table 2A, read-out: MIC, Staphylococcus epidermidis (ATCC 35984)) it was 0.2 to 0.39 µM (≈ 0.0846 to 0.165 µg/mL); in data set [3] (Table 2B, read-out: MIC, Staphylococcus epidermidis (ATCC 35984)) it was 0.3 µM (≈ 0.127 µg/mL). The MIC was 0.3 to 0.59 µM (≈ 0.127 to 0.25 µg/mL) in data set [3] (Table 7, read-out: MIC, MRSE 35984); 0.39 µM (≈ 0.165 µg/mL) in [4] (Enterococcus faecium, Table 2A, read-out: MIC, Enterococcus faecium (ATCC 700221)); 0.39 µM (≈ 0.165 µg/mL) in data set [4] (Enterococcus faecium, Table 2B, b lowest concentration tested, read-out: MIC, Enterococcus faecium (ATCC 700221)); 0.39 µM (≈ 0.165 µg/mL) in [4] (Table 7, b lowest concentration tested, read-out: MIC, VRE 700221); 6.25 µM (≈ 2.64 µg/mL) in [5] (168 h, M. tuberculosis H37Ra, 7 days, read-out: Mtb MIC); 6.25 µM (≈ 2.64 µg/mL) in data set [5] (Table 7, read-out: MIC, M. tuberculosis H37Ra). The MIC came to 12.5 µM in the data set on MRSA-2 (MRSA-2, without Tiron, read-out: MIC); 0.1 µM in the data set on MRSA-2 (MRSA-2, b lowest concentration tested, read-out: MIC with Tiron); 0.1 µM in the data set with S. epidermidis 12228 (S. epidermidis 12228, without Tiron, read-out: MIC); 0.1 µM with S. epidermidis 12228 (S. epidermidis 12228, read-out: MIC with Tiron); 0.39 µM with E. faecium 700221 (VRE) (VRE 700221, without Tiron, read-out: MIC); 0.39 µM in the data set with E. faecium 700221 (VRE) (VRE 700221, read-out: MIC with Tiron). Further, the minimal inhibitory concentration (MIC) with MRSA BAA-1707 was 25 µM (≈ 10.6 µg/mL); in the data set on MRSA BAA-44, 50 µM (≈ 21.1 µg/mL). Besides, the “MIC, MRSE 35984” value in data set [3] (Table 7) is reported as 0.30^a μM. The molecule further showed an IC50 at 24 h in the data set “in vitro” greater than 100 µM. This molecule also had an IC50 in the data set on HeLa cells greater than 100 µM. Also, the “% Hemolysis (200 μM)” value in the data set on human red blood cells is no more than 1%. The MBC came out at 0.39 µM (≈ 0.165 µg/mL) in data set [6] (Table 5, read-out: VRE MBC); 0.39 µM (≈ 0.165 µg/mL) in [6] (Table 8, read-out: VRE 700221 MBC); 6.25 µM (≈ 2.64 µg/mL) in data set [8]. The “VRE MBEC” value in [6] (Table 5) was 0.39/0.39 μM. For the same molecule, the “adverse side effects (changes in weight, seizure, death)” value in [7] is “no adverse side effects”.

With `COc1cccc(OC)c1C(=O)N[C@@H]1C(=O)N2[C@@H]1SC(C)(C)[C@@H]2C(=O)O` [Methicillin, methicillin, reference compound], the MIC in data set [9] was 0.8 to 1.56 µM (≈ 0.304 to 0.593 µg/mL); in [10], 25 µM (≈ 9.51 µg/mL); in [11], 25 µM (≈ 9.51 µg/mL); in data set [12], 50 µM (≈ 19 µg/mL).

(Values after patent publication US20180312473A1, “PHENAZINE DERIVATIVES AS ANTIMICROBIAL AGENTS” (priority 2015, published 2018).)
